Reference: patent publication US9408925B2, “Hyperpolarized lactate contrast agent for determination of LDH activity” (GE Healthcare Limited, priority 2010, dated 2016)

How the values were obtained:
[1] = 13C T1 and T2 relaxation of non-polarized lactate samples (10 mM) at 9.4 T; format: physicochemical
Protocol: For FIG. 3, the samples contained 10 mM of either L-[1-^13C1, 2-^2H1] lactate or L-[1-^13C1] lactate (non-polarized). The T1 of the deuterated lactate was 55.8+/−2.2 s (n=1) and the T2 1.33+/−0.10 s (n=4) and the T1 of the C2 protonated lactate was 46.9+/−4.0 s (n=1) and the T2 1.49+/−0.13 s (n=2) (at 9.4 T). Heteronuclear ^13C/^1H double echo spectra were acquired using a 10 μs 90° ^13C pulse, a 5 ms adiabatic 180° ^13C pulse (bandwidth ˜2 kHz) and a 10 ms adiabatic ^1H pulse (bandwidth ˜1 kHz), which was centered on either the C2 or C3 lactate proton resonances (FIG. 2B). The TR was 20 s. Initial dummy scans produced a steady state z magnetization. The spectral bandwidth was 8 kHz and data were collected into 2048 complex points. Phase and amplitude corrected peak integrals for the lactate ^13C resonance were measured. The echo time is equivalent to 2τ.

[2] = T1 estimated from series of heteronuclear 13C/1H double echo spectra of hyperpolarized equimolar lactate mixture; format: physicochemical; details: 10 mM, multiple double echo spectra (FIG. 6)
Protocol: L-[1-^13C1] lactate was hyperpolarized using the DMSO preparation described in (Chen, A. P., et al. Feasibility of using hyperpolarized [1-C-13] lactate as a substrate for in vivo metabolic C-13 MRSI studies. Magnetic Resonance Imaging 26, 721-726 (2008)) with added Gd^3+. Briefly, 70 mg of a ˜50% w/w sodium L-[1-^13C1] lactate solution (0.31 mmol) (Sigma Aldrich, Gillingham, UK) is added to 27 mg DMSO (0.36 mmol) (Sigma Aldrich, Gillingham, UK), 2 mg OX 63 radical (1.4 μmol)(GE Healthcare) and 2.7 mg of a 50 mmol/L solution of Dotarem Gd^3+ chelate (Guerbet, Roissy, France). For in vitro experiments, one third of the resulting solution is polarised to the maximum at the optimal microwave frequency. Once the polarisation is at a maximum, the dissolution is performed with 6 mL of a 40 mmol/L Tris based buffer (pH=7.6) with added 100 mg/L EDTA. The final concentration of hyperpolarised L-[1-^13C1] lactate is then approximately 17 mmol/L. Acquisition of hetero-nuclear ^13C/^1H double echo spectra (TE=300 ms), with and without a 180° ^1H pulse, gave the spectra shown in FIG. 4.
An equimolar mixture of L-[1-^13C1] lactate and L-[1-^13C1, 2-^2H1] lactate was prepared and polarized to ˜26+/−0.5% (n=2). The final lactate concentration in the NMR tube was 10 mM.
Spectra were acquired with and without the 180° ^1H pulse. […]

| T1 [1] [s] | T2 [1] [s] | estimated T1 [2] [s] | SMILES |
| --- | --- | --- | --- |
| 46.9 ± 4.0 | 1.49 ± 0.13 | 25 | C[C@H](O)[13C](=O)[O-].[Na+] [L-[1-^13C1] lactate, Sodium L-[1-^13C1] lactate] |
| 55.8 ± 2.2 | 1.33 ± 0.10 | 27 | [2H][C@@](C)(O)[13C](=O)O [L-[1-^13C1,2-^2H1] lactate, L-[1-^13C, 2-^2H] Lactate] |
